Laboratory results published in US20170313674A1, “BENZYLHYDROXIDE DERIVATIVES, PREPARATION THEREOF AND THERAPEUTIC USE THEREOF” (SANOFI, priority 2014, published 2017).
Structures can show the parent of a compound that is named as a salt.

What follows are molecules tested on mitochondrial ATP production on non-small cell lung carcinoma cell lines NCI-H460 (assay: Mitochondrial ATP analysis (Cell Titer Glo) in NCI-H460 cells). Conditions: 1-hour incubation, with sodium iodoacetate (100 μM), concentration inhibiting 50% of mitochondrial ATP production, read-out: IC50 (mito ATP).
Assay type: cell-based
Protocol: In order to evaluate the inhibitory activity of the all compounds, an in vitro assay was developed which read out is directly linked to mitochondrial complex 1 inhibition. Since mitochondrial complex 1 contributes to the formation of membrane potential coupled to the mitochondrial ATP synthesis, complex 1 inhibition directly leads in cells to the inhibition of mitochondrial ATP production. Cellular ATP contents were measured in presence of either glycolysis inhibitor (sodium iodocetate) and/or mitochondrial inhibitors (F0F1-ATPase inhibitor: oligomycin or mitochondrial uncoupler: FCCP) to determine the ATP production part relying either on glycolytic or on mitochondrial metabolism.
Mitochondrial ATP Analysis
The compounds of the invention were evaluated for their ability to inhibit mitochondrial
ATP was measured using the Promega Cell Titer Glo kit and protocol. In summary, 1,000 cells were plated in 40 μL in a 384 well plate. 24 hours later, medium was replaced by 20 μl culture medium in presence of compounds: cells were treated in replicates of five with control (PBS), oligomycin A (10 μg/ml), FCCP (30 μM), or the compounds of the invention in dose effect both alone or in combination with sodium iodoacetate (100 μM). Following a 1-hour incubation, 20 μL of CellTtiter-glo™ reaction mix were added to each well for a final volume of 40 μL. Plates were then analyzed for luminescence with a Perkin Elmer EnVision. By comparing the different conditions, global ATP and percentages of both glycolytic and mitochondrial ATP were determined.
The mitochondrial ATP production was calculated as the remaining ATP under iodoacetate treatment minus basal ATP (ATP content under iodoacetate and oligomycin treatment). Inhibitory activity of the compounds on mitochondrial ATP in NCI-H460 cells is expressed as the concentration needed to inhibit 50% of mitochondrial ATP production (IC50, M).
COc1ccc(C(O)COc2ccc(-c3nc(C)c(-c4ccc(OCC(O)c5ccc(OC)c(OC)c5)cc4)o3)cc2)cc1OC (single isomer, unassigned) [Compound I-5, 1-(3,4-dimethoxyphenyl)-2-[4-[2-[4-[2-(3,4-dimethoxyphenyl)-2-hydroxy-ethoxy]phenyl]-4-methyl-oxazol-5-yl]phenoxy]ethanol] was tested, and the IC50 was 8270 nM.
COc1ccc(C(O)COc2ccc(-c3nsc(-c4ccc(OCC(O)c5ccc(OC)c(OC)c5)cc4)n3)cc2)cc1OC (single isomer, unassigned) [Compound I-41, 1-(3,4-dimethoxyphenyl)-2-[4-[5-[4-[2-(3,4-dimethoxyphenyl)-2-hydroxy-ethoxy]phenyl]-1,2,4-thiadiazol-3-yl]phenoxy]ethanol] showed an IC50 of 539 nM.
In the case of COc1ccc(C(O)COc2ccc(-c3nc(-c4ccc(OC(C)(C)C(O)c5ccc(OC)c(OC)c5)cc4)cs3)cc2)cc1OC (single isomer, unassigned) [Compound I-68, 1-(3,4-dimethoxyphenyl)-2-[4-[2-[4-[2-(3,4-dimethoxyphenyl)-2-hydroxy-ethoxy]phenyl]thiazol-4-yl]phenoxy]-2-methyl-propan-1-ol], the IC50 is reported as 32.8 nM.
COc1cc(C(O)COc2ccc(-c3csc(-c4ccc(OCC(O)c5ccc(OC(F)F)c(OC)c5)cc4)n3)cc2)ccc1OC(F)F (single isomer, unassigned) [Compound I-52, 1-[4-(difluoromethoxy)-3-methoxy-phenyl]-2-[4-[2-[4-[2-[4-(difluoromethoxy)-3-methoxy-phenyl]-2-hydroxy-ethoxy]phenyl]thiazol-4-yl]phenoxy]ethanol] was tested, and the IC50 was > 10000 nM.
With COc1ccc(C(O)COc2ccc(-c3csc(-c4ccc(OCC(O)c5ccc(OC)c(OC(F)F)c5)cc4)n3)cc2)cc1OC(F)F (single isomer, unassigned) [Compound I-50, 1-[3-(difluoromethoxy)-4-methoxy-phenyl]-2-[4-[2-[4-[2-[3-(difluoromethoxy)-4-methoxy-phenyl]-2-hydroxy-ethoxy]phenyl]thiazol-4-yl]phenoxy]ethanol] the IC50 was 1340 nM.
COc1ccc(C(O)COc2ccc(-c3csc(-c4ccc(OCC(O)c5ccc(OC)c(OC)c5)cc4)n3)cc2)cc1OC (single isomer, unassigned) [Compound I-23, 1-(3,4-dimethoxyphenyl)-2-[4-[2-[4-[2-(3,4-dimethoxyphenyl)-2-hydroxy-ethoxy]phenyl]thiazol-4-yl]phenoxy]ethanol] showed an IC50 of 197 nM.
With COc1ccc(C(O)COc2ccc(-c3nc(-c4ccc(OC(C)(C)C(O)c5ccc(OC)c(OC)c5)cc4)cs3)cc2)cc1OC (single isomer, unassigned) [Compound I-67, 1-(3,4-dimethoxyphenyl)-2-[4-[2-[4-[2-(3,4-dimethoxyphenyl)-2-hydroxy-ethoxy]phenyl]thiazol-4-yl]phenoxy]-2-methyl-propan-1-ol] the IC50 was 156 nM.
In the case of COc1ccc(C(O)COc2ccc(-c3csc(-c4ccc(OCC(O)c5ccc(OC)c(OC(F)F)c5)cc4)n3)cc2)cc1OC(F)F (single isomer, unassigned) [Compound I-49, 1-[3-(difluoromethoxy)-4-methoxy-phenyl]-2-[4-[2-[4-[2-[3-(difluoromethoxy)-4-methoxy-phenyl]-2-hydroxy-ethoxy]phenyl]thiazol-4-yl]phenoxy]ethanol], the IC50 is reported as > 10000 nM.
With COc1ccc(C(O)COc2ccc(-c3cn(CCN4CCOCC4)c(-c4ccc(OCC(O)c5ccc(OC)c(OC)c5)cc4)n3)cc2)cc1OC (stereo not drawn) [Compound I-60, 1-(3,4-dimethoxyphenyl)-2-[4-[2-[4-[2-(3,4-dimethoxyphenyl)-2-hydroxy-ethoxy]phenyl]-1-(2-morpholinoethyl)imidazo1-4-yl]phenoxy]ethanol hydrochloride] the IC50 was > 10000 nM.

Same assay, conditions: Homo sapiens, NCI-H460, 1 h, 1-hour incubation, with sodium iodoacetate (100 μM), concentration inhibiting 50% of mitochondrial ATP production, read-out: IC50 (mito ATP)
Molecule COc1ccc(C(O)COc2ccc(-c3c[nH]c(-c4ccc(OCC(O)c5ccc(OC)c(OC)c5)cc4)n3)cc2)cc1OC (stereo not drawn) [Compound I-53, 1-(3,4-dimethoxyphenyl)-2-[4-[2-[4-[2-(3,4-dimethoxyphenyl)-2-hydroxy-ethoxy]phenyl]-1H-imidazol-4-yl]phenoxy]ethanol] has an IC50 of 956 nM.
COc1ccc(C(O)COc2ccc(-c3nsc(-c4ccc(OCC(O)c5ccc(OC)c(OC)c5)cc4)n3)cc2)cc1OC (single isomer, unassigned) [Compound I-40, 1-(3,4-dimethoxyphenyl)-2-[4-[5-[4-[2-(3,4-dimethoxyphenyl)-2-hydroxy-ethoxy]phenyl]-1,2,4-thiadiazol-3-yl]phenoxy]ethanol] showed an IC50 of 281 nM.
For COc1cc(C(O)COc2ccc(-c3coc(-c4ccc(OCC(O)c5ccc(F)c(OC)c5)cc4)n3)cc2)ccc1F (stereo not drawn) [Compound I-16, 1-(4-fluoro-3-methoxy-phenyl)-2-[4-[2-[4-[2-(4-fluoro-3-methoxy-phenyl)-2-hydroxy-ethoxy]phenyl]oxazol-4-yl]phenoxy]ethanol], the IC50 was 354 nM.
For COc1ccc(C(O)COc2ccc(-c3nc(C)c(-c4ccc(OCC(O)c5ccc(OC)c(OC)c5)cc4)o3)cc2)cc1OC (single isomer, unassigned) [Compound I-46, 1-(3,4-dimethoxyphenyl)-2-[4-[2-[4-[2-(3,4-dimethoxyphenyl)-2-hydroxy-ethoxy]phenyl]-4-methyl-oxazol-5-yl]phenoxy]ethanol], the IC50 was > 10000 nM.
Molecule COc1ccc(C(O)C(C)(C)Oc2ccc(-c3c[nH]c(-c4ccc(OC(C)(C)C(O)c5ccc(OC)c(OC)c5)cc4)n3)cc2)cc1OC (stereo not drawn) [Compound I-54, 1-(3,4-dimethoxyphenyl)-2-[4-[2-[4-[2-(3,4-dimethoxyphenyl)-2-hydroxy-1,1-dimethyl-ethoxy]phenyl]-1H-imidazol-4-yl]phenoxy]-2-methyl-propan-1-ol] has an IC50 of 672 nM.
For COc1ccc(C(O)COc2ccc(-c3coc(-c4ccc(OCC(O)c5ccc(OC)c(F)c5)cc4)n3)cc2)cc1F (stereo not drawn) [Compound I-17, 1-(3-fluoro-4-methoxy-phenyl)-2-[4-[2-[4-[2-(3-fluoro-4-methoxy-phenyl)-2-hydroxy-ethoxy]phenyl]oxazol-4-yl]phenoxy]ethanol], the IC50 was 3960 nM.
COc1cc(C(O)COc2ccc(-c3coc(-c4ccc(OCC(O)c5ccc(Cl)c(OC)c5)cc4)n3)cc2)ccc1Cl (stereo not drawn) [Compound I-15, 1-(4-chloro-3-methoxy-phenyl)-2-[4-[2-[4-[2-(4-chloro-3-methoxy-phenyl)-2-hydroxy-ethoxy]phenyl]oxazol-4-yl]phenoxy]ethanol] gave an IC50 of 1550 nM.
For COc1ccc(C(O)C(C)(C)Oc2ccc(-c3cn(CCN4CCOCC4)c(-c4ccc(OC(C)(C)C(O)c5ccc(OC)c(OC)c5)cc4)n3)cc2)cc1OC (stereo not drawn) [Compound I-59, 1-(3,4-dimethoxyphenyl)-2-[4-[2-[4-[2-(3,4-dimethoxyphenyl)-2-hydroxy-1,1-dimethyl-ethoxy]phenyl]-1-(2-morpholinoethyl)imidazo1-4-yl]phenoxy]-2-methyl-propan-1-ol], the IC50 was 2750 nM.
In the case of COc1cc(C(O)COc2ccc(-c3csc(-c4ccc(OCC(O)c5ccc(OC(F)F)c(OC)c5)cc4)n3)cc2)ccc1OC(F)F (single isomer, unassigned) [Compound I-51, 1-[4-(difluoromethoxy)-3-methoxy-phenyl]-2-[4-[2-[4-[2-[4-(difluoromethoxy)-3-methoxy-phenyl]-2-hydroxy-ethoxy]phenyl]thiazol-4-yl]phenoxy]ethanol], the IC50 is reported as > 10000 nM.
